Like-named read-outs stand apart in the source and are kept apart here.
Target: T1, chimeric human H3 receptor (Homo sapiens, UniProt Q9Y5N1)
T1 construct: made in house; host or cells: Sf9 insect cells (baculovirus); P2 membrane preparation
Experiment: Chimeric human H3 receptor screening GTP binding assay (inhibition of histamine-stimulated GTP-gamma35S binding, Example 8)
Format: biochemical
Settings: 4 μM of the compound, 1 μM histamine, read-out: percent inhibition of the signal obtained with 1 μM histamine
Procedure: This Example illustrates a representative screening assay for evaluating inhibition of histamine-stimulated GTP-gamma^35S binding. Such GTP binding activity can be used to identify H3 antagonists and inverse agonists. A compound analyzed in this assay is referred to herein as a “test compound,” and the initial identification of antagonists and inverse agonists is performed using a test compound concentration of 4 μM.
Four independent baculoviral stocks (one directing the expression of the chimeric human H3 receptor and three directing the expression of each of the three subunits of a heterotrimeric G-protein) are used to infect a culture of Sf9 cells as described above. P2 membranes are prepared as described above, and are resuspended by Dounce homogenization (tight pestle) in GTP binding assay buffer (50 mM Tris pH 7.4, 120 mM NaCl, 5 mM MgCl2, 2 mM EGTA, 1 mg/ml BSA, 0.2 mg/ml bacitracin, 0.02 mg/ml aprotinin, 0.01 mg/ml saponin, 10 μM GDP) and added to assay tubes at a concentration of 35 μg protein/reaction tube. Non-radiolabeled test compounds are added to separate reactions at a concentration of 4 μM along with 1 μM histamine (agonist). Reactions are initiated by the addition of […] GTP-gamma^35S with a final assay volume of 0.20 ml.
After a 60-min incubation at room temperature, reactions are terminated by vacuum filtration over GF/C filters (pre-soaked in 50 mM Tris pH 7.4, 120 mM NaCl plus 0.1% BSA) followed by washing with ice-cold buffer (50 mM Tris pH 7.4, 120 mM NaCl). The amount of receptor-bound (and thereby membrane-bound) GTP-gamma^35S is determined by measuring the bound radioactivity, preferably by liquid scintillation spectrometry of the washed filters. Non-specific binding is determined using 10 uM GTP-gammaS and typically represents less than 5 percent of total binding. After subtraction of non-specific binding, data is expressed as percent inhibition of 1 μM histamine signal.
Neutral antagonists are those test compounds that reduce the histamine-stimulated GTP binding activity towards, but not below, baseline levels. In contrast, in the absence of added histamine, inverse agonists reduce the GTP binding activity of the receptor-containing membranes below baseline. Any test compound that elevates GTP binding activity above baseline in the absence of added histamine in this assay is defined as having agonist activity.

T1 sequence (Q9Y5N1 with tags, fused parts or gaps): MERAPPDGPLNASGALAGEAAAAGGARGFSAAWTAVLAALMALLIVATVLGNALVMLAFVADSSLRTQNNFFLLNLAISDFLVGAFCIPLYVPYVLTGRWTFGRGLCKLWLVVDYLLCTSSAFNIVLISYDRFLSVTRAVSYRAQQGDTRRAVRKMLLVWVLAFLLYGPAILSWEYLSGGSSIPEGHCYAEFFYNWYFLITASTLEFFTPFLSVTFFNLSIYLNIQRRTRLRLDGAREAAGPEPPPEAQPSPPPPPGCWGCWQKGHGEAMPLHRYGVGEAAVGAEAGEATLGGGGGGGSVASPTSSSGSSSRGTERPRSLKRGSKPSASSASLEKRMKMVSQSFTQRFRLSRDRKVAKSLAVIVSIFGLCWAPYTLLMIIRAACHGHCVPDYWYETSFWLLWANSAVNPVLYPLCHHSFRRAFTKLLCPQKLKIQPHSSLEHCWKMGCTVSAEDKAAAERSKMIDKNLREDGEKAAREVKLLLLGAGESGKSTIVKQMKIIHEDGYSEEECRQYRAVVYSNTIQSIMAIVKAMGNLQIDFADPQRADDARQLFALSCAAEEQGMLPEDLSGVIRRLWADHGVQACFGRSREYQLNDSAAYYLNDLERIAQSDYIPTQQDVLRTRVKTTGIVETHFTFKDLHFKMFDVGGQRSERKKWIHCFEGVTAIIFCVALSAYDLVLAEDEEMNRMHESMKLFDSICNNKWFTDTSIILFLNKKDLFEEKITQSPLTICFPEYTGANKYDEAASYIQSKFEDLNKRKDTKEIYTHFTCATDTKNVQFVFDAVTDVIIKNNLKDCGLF

inhibition at 4 µM ("†" in Ki of Table II) [%]	inhibition at 4 µM (Table II "Ki", symbol †) [%]	SMILES
≥ 90	–	COc1ccc(F)cc1-c1nc2c(s1)CN(CC(=O)N1CCN(C3CCC3)CC1)CC2 [Compound 343, 5-[2-(4-cyclobutylpiperazin-1-yl)-2-oxoethyl]-2-(5-fluoro-2-methoxyphenyl)-4,5,6,7-tetrahydro[1,3]thiazolo [5,4-c]pyridine]
–	≥ 90	O=C(CN1CCc2cc(-c3ccc(Oc4ccccc4)cc3)ccc2C1)N1CCN(C2CCC2)CC1 [Compound 486, 2-[2-(4-cyclobutylpiperazin-1-yl)-2-oxoethyl]-6-(4-phenoxyphenyl)-1,2,3,4-tetrahydroisoquinoline]
≥ 90	–	O=C(CN1CCc2cc(-c3ccc(F)cc3)ccc2C1)N1CCN(C2CCCC2)CC1 [Compound 408, 2-[2-(4-cyclopentylpiperazin-1-yl)-2-oxoethyl]-6-(4-fluorophenyl)-1,2,3,4-tetrahydroisoquinoline]
≥ 90	–	CCCCc1ccc(-c2ccc3c(c2)CCN(CC(=O)N2CCN(C4CCC4)CC2)C3)cc1 [Compound 451, 6-(4-butylphenyl)-2-[2-(4-cyclobutylpiperazin-1-yl)-2-oxoethyl]-1,2,3,4-tetrahydroisoquinoline]
–	≥ 90	COc1ccc(-c2ccc3c(c2)CCN(CC(=O)N2CCN(C4CCC4)CC2)C3)c(C)c1 [Compound 548, 2-[2-(4-cyclobutylpiperazin-1-yl)-2-oxoethyl]-6-(4-methoxy-2-methylphenyl)-1,2,3,4-tetrahydroisoquinoline]
–	≥ 90	COc1ccc(-c2ccc(-c3ccc4c(c3)CCN(CC(=O)N3CCN(C5CCCCC5)CC3)C4)cc2)cc1 [Compound 500, 2-[2-(4-cyclohexylpiperazin-1-yl)-2-oxoethyl]-6-(4′-methoxybiphenyl-4-yl)-1,2,3,4-tetrahydroisoquinoline]
–	≥ 90	O=C(CN1CCc2cc(-c3cncnc3)ccc2C1)N1CCN(C2CCOCC2)CC1 [Compound 621, 2-{2-oxo-2-[4-(tetrahydro-2H-pyran-4-yl)piperazin-1-yl]ethyl}-6-pyrimidin-5-yl-1,2,3,4-tetrahydroisoquinoline]
–	≥ 90	COc1ccc(-c2ccc3c(c2)CCN(CC(=O)N2CCN(C4CCCCC4)CC2)C3)cc1C [Compound 542, 2-[2-(4-cyclohexylpiperazin-1-yl)-2-oxoethyl]-6-(4-methoxy-3-methylphenyl)-1,2,3,4-tetrahydroisoquinoline]
≥ 90	–	O=C(CN1CCc2cc(-c3ccc(OC(F)(F)F)cc3)ccc2C1)N1CCN(C2CCCCC2)CC1 [Compound 480, 2-[2-(4-cyclohexylpiperazin-1-yl)-2-oxoethyl]-6-[4-(trifluoromethoxy)phenyl]-1,2,3,4-tetrahydroisoquinoline]
–	≥ 90	COc1ccc(Cl)cc1-c1ccc2c(c1)CCN(CC(=O)N1CCN(C3CCC3)CC1)C2 [Compound 557, 6-(5-chloro-2-methoxyphenyl)-2-[2-(4-cyclobutylpiperazin-1-yl)-2-oxoethyl]-1,2,3,4-tetrahydroisoquinoline]
≥ 90	–	Cc1cc(-c2ccc3c(c2)CCN(CC(=O)N2CCN(C4CCCCC4)CC2)C3)ccc1F [Compound 431, 2-[2-(4-cyclohexylpiperazin-1-yl)-2-oxoethyl]-6-(4-fluoro-3-methylphenyl)-1,2,3,4-tetrahydroisoquinoline]
–	≥ 90	CC(C)N1CCN(C(=O)CN2CCc3cc(-c4cccc(OC(F)(F)F)c4)ccc3C2)CC1 [Compound 493, 2-[2-(4-isopropylpiperazin-1-yl)-2-oxoethyl]-6-[3-(trifluoromethoxy)phenyl]-1,2,3,4-tetrahydroisoquinoline]
–	≥ 90	COCC(C)Nc1ccc2c(n1)CCN(CC(=O)N1CCN(C3CCC3)CC1)C2 (stereo not drawn) [Compound 665, 6-[2-(4-cyclobutylpiperazin-1-yl)-2-oxoethyl]-N-(2-methoxy-1-methylethyl)-5,6,7,8-tetrahydro-1,6-naphthyridin-2-amine]
–	≥ 90	O=C(CN1CCc2cc(-c3cccc(F)c3F)ccc2C1)N1CCN(C2CCCCC2)CC1 [Compound 601, 2-[2-(4-cyclohexylpiperazin-1-yl)-2-oxoethyl]-6-(2,3-difluorophenyl)-1,2,3,4-tetrahydroisoquinoline]
≥ 90	–	O=C(CN1CCc2cc(-c3cccc(F)c3)ccc2C1)N1CCN(C2CCC2)CC1 [Compound 410, 2-[2-(4-cyclobutylpiperazin-1-yl)-2-oxoethyl]-6-(3-fluorophenyl)-1,2,3,4-tetrahydroisoquinoline]
≥ 90	–	Cc1ccc(-c2ccc3c(c2)CCN(CC(=O)N2CCN(C4CCCC4)CC2)C3)c(F)c1 [Compound 421, 2-[2-(4-cyclopentylpiperazin-1-yl)-2-oxoethyl]-6-(2-fluoro-4-methylphenyl)-1,2,3,4-tetrahydroisoquinoline]
–	≥ 90	CCOc1cccc(-c2ccc3c(c2)CCN(CC(=O)N2CCN(C4CCCCC4)CC2)C3)c1 [Compound 484, 2-[2-(4-cyclohexylpiperazin-1-yl)-2-oxoethyl]-6-(3-ethoxyphenyl)-1,2,3,4-tetrahydroisoquinoline]
–	≥ 90	COc1cc(-c2ccc3c(c2)CCN(CC(=O)N2CCN(C4CCCCC4)CC2)C3)cc(OC)c1OC [Compound 518, 2-[2-(4-cyclohexylpiperazin-1-yl)-2-oxoethyl]-6-(3,4,5-trimethoxyphenyl)-1,2,3,4-tetrahydroisoquinoline]
–	≥ 90	COc1ccccc1-c1ccc2c(c1)CCN(CC(=O)N1CCN(C3CCCCC3)CC1)C2 [Compound 553, 2-[2-(4-cyclohexylpiperazin-1-yl)-2-oxoethyl]-6-(2-methoxyphenyl)-1,2,3,4-tetrahydroisoquinoline]
≥ 90	–	CC(C)c1cccc(-c2ccc3c(c2)CCN(CC(=O)N2CCN(C4CCCC4)CC2)C3)c1 [Compound 440, 2-[2-(4-cyclopentylpiperazin-1-yl)-2-oxoethyl]-6-(3-isopropylphenyl)-1,2,3,4-tetrahydroisoquinoline]
–	≥ 90	CC(C)N1CCN(C(=O)CN2CCc3cc(-c4ccc(N(C)C)cc4)ccc3C2)CC1 [Compound 535, 4-{2-[2-(4-isopropylpiperazin-1-yl)-2-oxoethyl]-1,2,3,4-tetrahydroisoquinolin-6-yl}-N,N-dimethylaniline]
–	≥ 90	COc1ccc(C)cc1-c1ccc2c(c1)CCN(CC(=O)N1CCN(C3CCC3)CC1)C2 [Compound 572, 2-[2-(4-cyclobutylpiperazin-1-yl)-2-oxoethyl]-6-(2-methoxy-5-methylphenyl)-1,2,3,4-tetrahydroisoquinoline]
≥ 90	–	COc1ccc(C(C)C)cc1-c1nc2c(s1)CN(CC(=O)N1CCN(C3CCC3)CC1)CC2 [Compound 337, 5-[2-(4-cyclobutylpiperazin-1-yl)-2-oxoethyl]-2-(5-isopropyl-2-methoxyphenyl)-4,5,6,7-tetrahydro[1,3]thiazolo [5,4-c]pyridine]
–	≥ 90	CC1CCCC1N1C[C@@H]2C[C@H]1CN2C(=O)CN1CCc2cc(-c3cncnc3)ccc2C1 (stereo in doubt) [Compound 615, 2-{2-[(1S,4S)-5-(2-methylcyclopentyl)-2,5-diazabicyclo[2.2.1]hept-2-yl]-2-oxoethyl}-6-pyrimidin-5-yl-1,2,3,4-tetrahydroisoquinoline]

— patent US20110082130A1 (LIGAND PHARMACEUTICALS, INC., priority 2006, published 2011)
